Assay results from US10583124B2, “Wild bird treatment composition and methods” (priority 2016, dated 2020).
Where two headings read alike, the source gives them in different places.

Assays:
[1] = format: physicochemical; settings: in acetonitrile, positive control, 1 hour
Method: Composition 10 was exposed to elevated temperature (75° C.) for 1 hour to determine if fenbendazole inside composition 10 was being protected from the effects of high temperature. Control composition 10 was left at room temperature for the same time period. Additionally, 100 ppm fenbendazole in acetonitrile was used as a positive control and exposed to the same conditions (room and elevated temperature for 1 hour).

[2] = as long as protected from photo oxidation; cited from earlier work

COC(=O)Nc1nc2ccc(Sc3ccccc3)cc2[nH]1 [fenbendazole]
Fenbendazole extracted from 100 ppm fenbendazole solution ([1]; 21 °C (room temperature)): 115.18 ppm
Fenbendazole extracted from 100 ppm fenbendazole solution ([1]; 75 °C): 93.36 ppm
humidity range in which stable [2]: 10-100%
temperature range in which stable [2]: 4.4-37.7 °C
